# Data as given in a melting point compilation (Tetko et al.).
row,SMILES,melting point [°C]
1,O=Cc1cccc2cccnc12,93
2,NS(=O)(=O)c1ccc(SCCCCO)cc1,101
3,Cc1ncc(S(=O)(=O)C(C)(C)C)c(N)n1,163 to 166
4,CC(=O)OCC(=O)[C@@]1(O)CC[C@H]2[C@@H]3CCC4=CC(=O)C=C[C@]4(C)[C@H]3[C@@H](O)C[C@@]21C,238
5,CCOC(=O)c1cc(C)n(Cn2nc(C(=O)OCC)cc2C)n1,130
6,COc1cc([N+](=O)[O-])c(Cl)cc1N,131 to 133
7,Cn1c(/C(C#N)=C/c2ccc(F)cc2)nc2ccccc21,133
8,Cc1ccc(-c2ccc(C=C3N=C(c4ccccc4)OC3=O)o2)cc1,149 to 150
9,Clc1ccc(-c2csc(N3N=C(c4cnccn4)CC3c3ccc4c(c3)OCO4)n2)cc1 (stereo unspecified),187
10,Cc1ccc(S(=O)(=O)OCCc2coc3ccccc23)cc1,61 to 62
11,NC(=O)C(CCN1CCCCCC1)(c1ccccc1)c1ccccc1,142
12,CCOC(=O)c1c[nH]c(S)n1,191 to 193
13,O=Cc1cc([N+](=O)[O-])cc(Br)c1O,149
14,CC(C)S(=O)(=O)c1cnc(-c2ccccn2)nc1N,147 to 150
15,CC(C)(C)NC(=O)COC(=O)c1ccccc1,112
16,CC(=O)Nc1ccccc1C#Cc1ccccc1,118 to 119
17,CC(C)OC(=O)C1(S(=O)(=O)c2ccc(Cl)cc2)CC1,89.8
18,Cc1ccc(C(c2ccc(C)cc2)(C(F)(F)F)C(F)(F)F)cc1,82 to 83
19,O=CCCCCC=O,-8
20,CCCCCNc1ccc(NCCCCC)c2c1C(=O)c1ccccc1C2=O,210
21,COc1ccc(OC)c2c1CC2=O,105
22,Cc1nn(C)c2c(N)ncnc12,238

row,SMILES,melting point [°C]
1,CC(C)(C)OC(=O)n1cccc1C=O,51
2,COC(=O)CCc1ccc2c(c1)NC(=O)CC2,143
3,NS(=O)(=O)c1cc2c(s1)S(=O)(=O)CCC2=O,242
4,CCN(CC)CC(=O)Nc1sc2c(c1C#N)CCCC2,170 to 171
5,CCOC(=O)c1cc(Cl)c(O)c(Cl)c1,111
6,O=S(=O)(Cl)c1ccccc1Br,50 to 51
7,Cc1nc(-c2ccccc2)sc1CN,230
8,FC(Cl)C(F)Cl (stereo unspecified),-101
9,COc1ccc(-n2nc(C(=O)c3cccc4ccccc34)sc2=N)cc1,75
10,CC(C)(C)OC(=O)N[C@@H](CCCCN)C(=O)O,205
11,Cc1ccc(C=O)c2ccccc12,31 to 33
12,O=C(O)CC(=O)CC(=O)O,133
13,BrCc1c(CBr)c(CBr)c(CBr)c(CBr)c1CBr,292
14,OCc1ccc(OC2CCOCC2)cc1,81.5 to 82.5
15,CCC1NC(C(=O)O)CS1 (mixture of isomers),158 to 162
16,Nc1c(CN2CCCC2)c(=O)oc2ccccc12,197
17,O=C(Nc1ccc(Cl)cc1)C(Cl)=C(Cl)Cl,146
18,O=C(N(Cc1ccccc1)Cc1ccccc1)C(F)(F)C(F)(F)C(F)(F)C(F)(F)C(F)(F)C(F)(F)C(F)(F)C(F)(F)F,49
19,O=[N+]([O-])c1ccc(S(=O)(=O)OCc2ccccc2OS(=O)(=O)c2ccc([N+](=O)[O-])cc2)cc1,204 to 206
20,Ic1cccc2ccccc12,4
21,COc1ncccc1N,67 to 68
22,COC(=O)C1(C(=O)OC)Cc2ccc(C)cc2C(=O)O1,120 to 121

row,SMILES,melting point [°C]
1,O=C(O)CCCCCCCO,51 to 57
2,CC(C)SC1OC(CO)C(O)C(O)C1O (stereo unspecified),121
3,Oc1ccnc2cc(C(F)(F)F)ccc12,266 to 270
4,O=S(=O)(O)c1ccc2ccccc2c1,91
5,CCOC(=O)C1=C(C)NC(C)=C(C(=O)OCC)C1C,132 to 139
6,CC(C)(C)C1CCCC1,-96
7,O=[N+]([O-])c1ccccc1OCCCBr,37 to 38
8,Cc1ccc(-n2c(-c3cccnc3)noc2=S)cc1,159
9,CC(C)(C)OC(=O)n1cc(C(=O)O)c2c(Br)cccc21,149 to 150
10,Cc1ccc(C)n1CC1CCNCC1,50
11,O=C(O)C=Cc1ccc(O)cc1,214
12,CC(=O)Oc1ccc(Cl)cc1,9
13,CCCSc1nnc(S)s1,145 to 147
14,CCc1c(C)[nH]c2ccc(N(C)C)cc12,100
15,CCCOCC(C)OCC(C)O (stereo unspecified),7.08
16,CC(CN)C(=O)O (racemic),177 to 181
17,CCOC(=O)Nc1ccc(NCc2ccc(F)cc2)nc1N,114
18,CC(=O)C1=CCC2(C)C(CCC3C4CCC(=O)C4(C)CCC32)C1 (stereo unspecified),152 to 153
19,O=C(Cc1ccccc1)NC(CO)c1ccccc1 (stereo unspecified),140
20,O=C1OC(=O)c2cc([N+](=O)[O-])ccc21,115
21,COc1ccccc1NC(=O)c1cnc(C(C)(C)C)c(Cl)n1,118 to 119
22,CCC(=O)c1cccc([N+](=O)[O-])c1,101
